Data on seven molecules can be found in ChEMBL document CHEMBL4219159, “A genetically selected cyclic peptide inhibitor of BCL6 homodimerization” (Bioorg Med Chem, 2018).

Assay [1] addresses T1, B-cell lymphoma 6 protein (Homo sapiens, UniProt P41182). The assay is described as follows: Binding affinity to recombinant N-terminal GST-tagged/RED-NHS labelled wild-type BCL6 BTB domain (5 to 129 residues) (unknown origin) expressed in Escherichia coli Rosetta BL21 (DE3) incubated for 30 mins under dark condition by microscale thermophoresis method. The note with it: read-out: Kd(app). In general terms: MST reads how a fluorescent partner responds to local heating, with and without ligand.

For assay [2], the target named is B-cell lymphoma 6 protein (Homo sapiens, UniProt P41182, C67R/C84N/C8Q). The assay is described as follows: Binding affinity to recombinant RED-NHS labelled BCL6 BTB domain (unknown origin) C8Q/C67R/C84N triple mutant expressed in Escherichia coli Rosetta BL21 (DE3) incubated for 30 mins under dark condition by microscale thermophoresis method. The settings on record: read-out: Kd(app).

For assay [3], the target named is T1, B-cell lymphoma 6 protein. Put plainly: Stabilization of recombinant N-terminal GST-tagged wild-type BCL6 BTB domain (5 to 129 residues) (unknown origin) expressed in Escherichia coli Rosetta BL21 (DE3) assessed as change in melting temperature measured every 30 secs by SYPRO orange dye based thermal shift assay.
Assay [4] concerns B-cell lymphoma 6 protein (Homo sapiens), P41182 [C8Q,C67R,C84N]. Put plainly: Stabilization of recombinant BCL6 BTB domain (unknown origin) C8Q/C67R/C84N triple mutant expressed in Escherichia coli Rosetta BL21 (DE3) assessed as change in melting temperature measured every 30 secs by SYPRO orange dye based thermal shift assay.
The target of assay [5] is T1, B-cell lymphoma 6 protein. Put plainly: Binding affinity to recombinant N-terminal GST-tagged/RED-NHS labelled wild-type BCL6 BTB domain (5 to 129 residues) (unknown origin) expressed in Escherichia coli Rosetta BL21 (DE3) incubated for 30 mins under dark condition in presence of DTT by microscale thermophoresis method.
Assay [6] deals with B-cell lymphoma 6 protein (Homo sapiens), P41182 [C8Q,C67R,C84N]. The assay is described as follows: Binding affinity to recombinant RED-NHS labelled BCL6 BTB domain (unknown origin) C8Q/C67R/C84N triple mutant expressed in Escherichia coli Rosetta BL21 (DE3) incubated for 30 mins under dark condition in presence of DTT by microscale thermophoresis method.
Assay [7] has the same test system. The assay is described as follows: Binding affinity to recombinant RED-NHS labelled BCL6 BTB domain (unknown origin) C8Q/C67R/C84N triple mutant expressed in Escherichia coli Rosetta BL21 (DE3) assessed as decrease in SMRT2 peptide binding incubated for 30 mins under dark condition by microscale thermophoresis method relative to control.
Assay [8] deals with T1, B-cell lymphoma 6 protein. The assay is described as follows: Binding affinity to recombinant N-terminal GST-tagged/RED-NHS labelled wild-type BCL6 BTB domain (5 to 129 residues) (unknown origin) expressed in Escherichia coli Rosetta BL21 (DE3) at 1 mM incubated for 30 mins under dark condition in by single-point microscale thermophoresis method.
Assay [9] has as its system B-cell lymphoma 6 protein (Homo sapiens), P41182 [C8Q,C67R,C84N]. Put plainly: Inhibition of recombinant BCL6 C8Q/C67R/C84N triple mutant BTB domain dimerization (unknown origin) expressed in Escherichia coli Rosetta BL21 (DE3) at 500 uM by size exclusion chromatographic method. On the technique in general: SEC sorts molecules by how far they enter the pores of the column.

Activity calls are given as the source filed them. The calls are words filed in the database; no cut-off is given here. Where a SMILES comes first, the peptide text is derived from it.

On to `CC[C@@H](C)[C@@H]1NC(=O)[C@H](CS)NC(=O)[C@H](C(C)C)NC(=O)[C@H](CS)NC(=O)[C@H](Cc2ccc(O)cc2)NC(=O)[C@H](Cc2ccc(O)cc2)NC1=O`, for which the Kd was 142 µM in assay [1] and 50 µM in assay [2]. The Activity result in assay [3] and in assay [4] was “Dose-dependent effect” in each case. The result in [5] and in assay [6] was inactive. The fold change (FC) in [7] was determined as 3. The result in assay [8] was Active. For the same molecule, the inhibition entry in assay [9] is “Active”.
In the case of `CC[C@@H](C)[C@@H]1NC(=O)[C@H](CS)NC(=O)[C@H](C(C)C)NC(=O)[C@H](CS)NC(=O)[C@H](Cc2ccc(O)cc2)NC(=O)[C@H](C)NC1=O`, the result in assay [8] was Active.
Still for that read-out and setting: the entry for `CC[C@@H](C)[C@@H]1NC(=O)[C@H](CS)NC(=O)[C@H](C(C)C)NC(=O)[C@H](C)NC(=O)[C@H](Cc2ccc(O)cc2)NC(=O)[C@H](Cc2ccc(O)cc2)NC1=O` is “inactive”; for `CC(C)[C@@H]1NC(=O)[C@H](CS)NC(=O)[C@H](Cc2ccc(O)cc2)NC(=O)[C@H](Cc2ccc(O)cc2)NC(=O)[C@H](C)NC(=O)[C@H](CS)NC1=O` (cyclo(AYYCVC)) it is “Active”.
For the molecule `CC[C@@H](C)[C@@H]1NC(=O)[C@H](C)NC(=O)[C@H](C(C)C)NC(=O)[C@H](CS)NC(=O)[C@H](Cc2ccc(O)cc2)NC(=O)[C@H](Cc2ccc(O)cc2)NC1=O`, in [8], the result was inactive.
The same measure, in the same setting: the entry for `CC[C@@H](C)[C@@H]1NC(=O)[C@H](CS)NC(=O)[C@H](C(C)C)NC(=O)[C@H](CS)NC(=O)[C@H](C)NC(=O)[C@H](Cc2ccc(O)cc2)NC1=O` is “inactive”; for `CC[C@@H](C)[C@@H]1NC(=O)[C@H](CS)NC(=O)[C@H](C)NC(=O)[C@H](CS)NC(=O)[C@H](Cc2ccc(O)cc2)NC(=O)[C@H](Cc2ccc(O)cc2)NC1=O` it is “Active”.
